Experimental data: ChEMBL document CHEMBL3870317, “FtsZ inhibition and redox modulation with one chemical scaffold: Potential use of dihydroquinolines against mycobacteria” (Eur J Med Chem, 2016)
≈ marks a conversion by molar mass, not a printed value. Calls of active or inactive are those of the source. The calls are words filed in the database; no cut-off is given here.

Tests used:
[1] = system: Mycobacterium tuberculosis; test: Displacement of ANS from recombinant Mycobacterium tuberculosis FtsZ expressed in Escherichia coli assessed as red shift at 20 to 140 uM after 30 mins by fluorescence analysis
[2] = system: Mycobacterium tuberculosis; test: Inhibition of recombinant Mycobacterium tuberculosis FtsZ expressed in Escherichia coli assessed as inhibition of protofilament formation by measuring intensity of light scattering at 400 nM up to 300 sec in presence of GTP by fluorescence spectrophotometry
[3] = system: Bacillus subtilis; test: Induction of ROS generation in Bacillus subtillis 168 assessed as DCF release at 25 to 50 uM measured after 1 hr by DCFH-DA based fluorescence microscopy; type: functional; settings: subsp. subtilis str. 168
[4] = system: Mycolicibacterium smegmatis; test: Induction of ROS generation in Mycobacterium smegmatis MC2 155 assessed as release of DCF at 25 to 50 uM measured after 1 hr by DCFH-DA based fluorescence spectrophotometry; type: functional; settings: str. MC2 155
[5] = biological target: T1, Cell division protein FtsZ (Bacillus subtilis (strain 168)) (UniProt P17865); test: Binding affinity to Bacillus subtilis 168 FtsZ assessed as effect on Z-ring assembly at 100 uM by FITC-staining based immunofluorescence microscopic method; settings: Bacillus subtilis subsp. subtilis str. 168
T1 sequence (whole entry): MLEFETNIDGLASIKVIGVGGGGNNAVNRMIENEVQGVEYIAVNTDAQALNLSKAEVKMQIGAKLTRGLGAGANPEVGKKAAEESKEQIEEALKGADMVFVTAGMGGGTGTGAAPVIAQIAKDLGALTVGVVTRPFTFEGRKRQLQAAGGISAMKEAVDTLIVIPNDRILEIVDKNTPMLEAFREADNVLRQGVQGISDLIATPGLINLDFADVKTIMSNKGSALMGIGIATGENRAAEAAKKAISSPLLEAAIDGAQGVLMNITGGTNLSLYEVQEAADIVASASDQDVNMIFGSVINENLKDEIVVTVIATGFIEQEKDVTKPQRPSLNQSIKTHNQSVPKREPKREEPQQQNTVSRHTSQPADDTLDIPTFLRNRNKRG

[6] = system: Mycobacterium tuberculosis; test: Inhibition of Mycobacterium tuberculosis FtsZ polymerization at 50 uM measured after 1 hr by sodium tungstate staining based transmission electron microscopic method
[7] = Displacement of ANS from recombinant Mycobacterium tuberculosis FtsZ expressed in Escherichia coli by double reciprocal plot analysis
[8] = (§1) Inhibition of recombinant Mycobacterium tuberculosis FtsZ polymerization expressed in Escherichia coli assessed as inhibition of protofilament formation by measuring intensity of light scattering in presence of GTP by fluorescence spectrophotometry method
[9] = system: Mycobacterium tuberculosis; test: as §1
[10] = biological target: T1, Cell division protein FtsZ (Bacillus subtilis (strain 168)); test: Inhibition of recombinant Bacillus subtilis 168 FtsZ assessed as increase in cell length at 50 uM measured after 2 hrs by phase contrast microscopy relative to control; settings: Bacillus subtilis subsp. subtilis str. 168
[11] = (§2) Inhibition of recombinant Mycobacterium tuberculosis FtsZ GTPase activity expressed in Escherichia coli assessed as inorganic phosphate release measured after 15 mins in presence of GTP using malachite green dye by fluorescence spectrophotometry
[12] = system: Mycobacterium tuberculosis; test: as §2
[13] = system: Mycobacterium tuberculosis; test: Inhibition of recombinant Mycobacterium tuberculosis FtsZ expressed in Escherichia coli assessed as inhibition of protofilament formation by measuring intensity of light scattering at 400 nM after 1000 sec in presence of GTP by fluorescence spectrophotometry
[14] = system: Mycolicibacterium smegmatis MC2 155; test: Inhibition of recombinant Mycobacterium smegmatis MC2 155 FtsZ assessed as increase in cell length at 50 uM measured after 2 hrs by phase contrast microscopy relative to control
[15] = system: Mycolicibacterium smegmatis; test: Antimycobacterial activity against Mycobacterium smegmatis MC2 155 measured after 48 hrs by resazurin dye-based MABA method; type: functional; settings: str. MC2 155, 48 h
[16] = system: Mycobacterium tuberculosis; test: Inhibition of recombinant Mycobacterium tuberculosis FtsZ GTPase activity expressed in Escherichia coli assessed as inorganic phosphate release at 50 uM measured after 15 mins in presence of GTP using malachite green dye by fluorescence spectrophotometry relative to control

Row | Compound | IC50 ([8]; read-out: IC50) [µM] | IC50 ([11]; read-out: IC50) [µM] | MIC [15] [µg/mL] | other results
1 | COC(=O)C1=Cc2cc([N+](=O)[O-])ccc2N([C@@H](CO)C(=O)OC)C1 | 33.4 | 39 | 7.5 (≈ 22.3 µM) | inhibition [1]: Active; inhibition [2]: Active; Activity [3]: Active; Activity [4]: Active; Activity [5]: Active; inhibition [6]: Active; Kd [7]: 8.6 µM; inhibition [9]: Dose-dependent effect; fold change (FC) [10]: 6; inhibition [12]: Dose-dependent effect; inhibition [13]: Dose-dependent effect; fold change (FC) [14]: 4
2 | CCN(CC)CCN1CC(C(=O)OC)=Cc2cc([N+](=O)[O-])ccc21 | 34 | 38.3 | 7.5 (≈ 22.5 µM) | inhibition [9]: Dose-dependent effect; inhibition [12]: Dose-dependent effect
3 | O=C(O)C1=Cc2cc([N+](=O)[O-])ccc2N(Cc2ccccc2)C1 | 95 | 86.6 | 31.2 (≈ 101 µM) | 
4 | COC(=O)C1=Cc2ccccc2N(S(=O)(=O)c2ccc(C)cc2)C1 |  |  |  | IC50 [8]: Nd(Insoluble); IC50 [11]: Nd(Insoluble)
5 | COCCCN1CC(C(=O)OC)=Cc2cc([N+](=O)[O-])ccc21 | 88.6 | 89.3 | 1.95 (≈ 6.37 µM) | inhibition [9]: Dose-dependent effect; inhibition [12]: Dose-dependent effect
6 | CN[C@@H]1[C@H](O[C@H]2[C@H](O[C@H]3[C@H](O)[C@@H](O)[C@H](N=C(N)N)[C@@H](O)[C@@H]3N=C(N)N)O[C@@H](C)[C@]2(O)C=O)O[C@@H](CO)[C@H](O)[C@H]1O [STREPTOMYCIN] |  |  | 3 (≈ 5.16 µM) | 
7 | CO[C@H]1/C=C/O[C@@]2(C)Oc3c(C)c(O)c4c(O)c(c(/C=N/N5CCN(C)CC5)c(O)c4c3C2=O)NC(=O)/C(C)=C\C=C\[C@H](C)[C@H](O)[C@@H](C)[C@@H](O)[C@@H](C)[C@H](OC(C)=O)[C@@H]1C [RIFAMPIN] |  |  | 1.75 (≈ 2.13 µM) | 
8 | CC(C)(C)OC(=O)C1=Cc2cc([N+](=O)[O-])ccc2N(Cc2ccccc2)C1 | > 200 | > 200 | 7.5 (≈ 20.5 µM) | 
9 | CC(C)c1c(O)ccc2c1CC[C@H]1C(C)(C)CCC[C@]21C |  |  |  | inhibition [16]: 73 to 74%
10 | CCCCN1CC(C(=O)OC)=Cc2cc([N+](=O)[O-])ccc21 | > 200 | > 200 | 7.5 (≈ 25.8 µM) | 
11 | CCN1CC(C(=O)OC)=Cc2cc([N+](=O)[O-])ccc21 |  |  |  | IC50 [8]: Nd(Insoluble); IC50 [11]: Nd(Insoluble)
12 | COC(=O)C1=Cc2cc([N+](=O)[O-])ccc2N([C@@H](C)C(=O)OC)C1 |  |  |  | IC50 [8]: Nd(Insoluble); IC50 [11]: Nd(Insoluble)
13 | COC(=O)C1=Cc2cc([N+](=O)[O-])ccc2N(Cc2ccccc2)C1 | 184 | 197 | 31.5 (≈ 97.1 µM) | 
14 | COC(=O)C1=Cc2cc([N+](=O)[O-])c(Cl)cc2N([C@@H](C)c2ccccc2)C1 | 41.4 | 40 | 15 (≈ 40.2 µM) | inhibition [6]: Active
15 | CC(=O)C1=Cc2cc([N+](=O)[O-])ccc2N(Cc2ccccc2)C1 | > 200 | > 200 | 7.5 (≈ 24.3 µM) | 
16 | COc1ccc2cc3[n+](cc2c1OC)CCc1cc2c(cc1-3)OCO2 |  |  |  | inhibition [16]: 79 to 80%
17 | COC(=O)C1=Cc2cc([N+](=O)[O-])ccc2N(CCO)C1 | 40.1 | 41.5 | 3.9 (≈ 14 µM) | 
18 | COC(=O)C1=Cc2cc([N+](=O)[O-])ccc2N(Cc2ccccn2)C1 | 194 | 186 | 62.5 (≈ 192 µM) | 
19 | COC(=O)C1=Cc2cc([N+](=O)[O-])ccc2N(Cc2ccc3c(c2)OCO3)C1 | 77.3 | 78.5 | 0.95 (≈ 2.58 µM) | inhibition [9]: Dose-dependent effect; inhibition [12]: Dose-dependent effect
20 | COC(=O)C1=Cc2cc3ccccc3nc2N([C@@H](CO)C(=O)OC)C1 | 61.5 | 66 | 15 (≈ 43.8 µM) | 
21 | CCN1CC(C(=O)OC)=Cc2cc(F)c(F)cc21 | 210 | 196 | 0.9 (≈ 3.55 µM) | inhibition [9]: Dose-dependent effect; inhibition [12]: Dose-dependent effect
22 | C[C@H](c1ccccc1)N1CC(C(=O)O)=Cc2cc([N+](=O)[O-])ccc21 | 40.9 | 25.3 | 7.5 (≈ 23.1 µM) | inhibition [9]: Dose-dependent effect; inhibition [12]: Dose-dependent effect
